What was measured:
[1] = test system: HvGR (Host Versus Graft Reaction) in Rats; assay: Inhibitory activities against HvGR in rats, combination with immunosuppressants (Test Example 3); type: in vivo, Lewis rats; conditions: oral 5 ml/kg once daily for 4 successive days; suspensions: cyclosporin A 0.08 mg/5 ml, tacrolimus 0.08 mg/5 ml, Compound A 0.008 mg/5 ml; popliteal lymph node weight
Protocol: Determination of Inhibitory Activities of Compounds against HvGR (Host Versus Graft Reaction) in Rats (1) Two strains of rats (Lewis rats (male, 6 weeks of age, Charles River Japan Inc.) and […] (male, 7 weeks of age, Japan SLC Inc.) were used. Five rats/group were used. […] Spleen cells were isolated from the spleens of […] or Lewis rats and floated in RPMI1640 medium (Life Technologies Inc.) at a concentration of 1×10^8 cells/ml. 0.1 ml of the medium containing the free-floating spleen cells of […] or 0.1 ml of the medium containing the free-floating spleen cells of Lewis rats were intracutaneously injected into the bilateral foot-pads of hindlimbs of Lewis rats. (3) Administration of Compounds […] In both the “same strain group” (Lewis rats treated with spleen cells of Lewis rats but not with the compounds) and “control group” (Lewis rats treated with the spleen cells of […] but not with the compounds), 0.5% tragacanth solution was orally administered. […] The inhibitory activities of the compounds were calculated from the “HvGR-induced changes in the popliteal lymph node weights” of individual rats in drug-treated group versus the average “HvGR-induced changes in the popliteal lymph node weights” in the control group.

[2] = test system: Host Versus Graft Reaction in Rats; assay: Inhibitory activities against host versus graft reaction (HvGR) in rats (Test Example 1); type: in vivo; conditions: oral, once daily for 4 successive days; HvGR-induced change in popliteal lymph node weight; Lewis rats injected with WKAH/Hkm spleen cells
Protocol: Determination of Inhibitory Activities of Compounds against Host Versus Graft Reaction in Rats
(1) Two strains of rats [Lewis rats (male, 6 weeks of age, Charles River Japan Inc.) and WKAH/Hkm rats (male, 7 weeks of age, Japan SLC Inc.) were used. Five rats/group were used.
Spleen cells were isolated from the spleens of WKAH/Hkm and Lewis rats and floated in RPMI1640 medium (Life Technologies Inc.) at a concentration of 1×10^8 cells/ml. 0.1 ml of the medium containing the free-floating spleen cells of WKAH/Hkm rats or Lewis rats (1×10^7 of the spleen cells) was then intracutaneously injected into the bilateral foot-pads of hindlimbs of Lewis rats.
(3) Administration of the Compounds
Compounds were suspended in 0.5% tragacanth solution. The suspended compounds were orally administered to rats in the drug-treated group (Lewis rats injected with spleen cells of WKAH/Hkm rats and treated with the compound) at a volume of 5 ml/kg once daily for 4 successive days starting on the day of spleen cell injection. The tragacanth solution (0.5%) was orally administered, instead of the compound-suspended solution, to rats in the “same strain group” (Lewis rats injected with spleen cells of Lewis rats) and the control group (Lewis rats injected with spleen cells of WKAH/Hkm rats and not treated with the compound).
(4) Determination of Inhibitory Activities of Compounds against HvGR
Average weight of the popliteal lymph nodes of the same strain rats was subtracted from individual weights of the popliteal lymph nodes of individual rats (“HvGR-induced changes in weight of the popliteal lymph nodes”). The inhibitory activities of compounds were calculated from the “HvGR-induced changes in weights of the popliteal lymph nodes” of individual rats in the drug-treated group versus the average “HvGR-induced changes in weights of the popliteal lymph nodes” in the control group. The inhibitory activities of compounds were expressed as ID50 values (mg/kg) as calculated by least squares method based on the doses of compounds administered and inhibitory activities at these doses.

[3] = test system: Adjuvant-Induced Arthritis; assay: Inhibitory activities against adjuvant-induced arthritis (Test Example 2); type: in vivo, rats (usually Lewis rats); conditions: oral, once daily for 21 successive days; foot swelling volume one day after final administration
Protocol: Determination of Inhibitory Activities of Compounds against Adjuvant-Induced Arthritis
(1) Preparation of Adjuvant
Adjuvant was prepared by suspension of killed Mycobacterium butyricum in mineral oil at a concentration of 2 mg/ml, followed by application of ultrasonic waves.
(2) Preparation of Test Compound
Test compounds were suspended or dissolved in 0.5% tragacanth solution.
(3) Induction of Adjuvant Arthritis
0.05 ml of adjuvant solution prepared as described in (1) was intracutaneously injected into the right foot-pad of rats (usually Lewis rats). Five rats/group were usually used. Adjuvant was not injected in one group of rats (normal group).
(4) Administration of Compound
Compounds prepared as described in (2) were orally administered to rats at a volume of 5 ml/kg once daily for 21 successive days. 0.5% tragacanth solution was similarly administered to rats in one group injected adjuvant (control group) and a group not injected adjuvant.
(5) Calculation of Inhibitory Activities of Compounds against Adjuvant Arthritis
One day after the final drug administration, the foot volume of each rat was measured by an apparatus for determination of the volume. The average value in normal rats was subtracted from the individual values in the drug-treated and control groups. The difference was expressed as the swelling volume. Inhibitory rate of the compound was calculated from the ratio of the individual swelling volume of the rat treated with the compound to the average swelling volume in the control group.
Inhibitory activities of compounds were expressed as ID50 values (mg/kg) calculated by least squares method based on the doses of the compound and their inhibitory ratios.

[4] = test system: Rejection Response against Skin Transplantation of Mice; assay: Inhibitory activities against rejection response against skin transplantation of mice (Test Example 5); type: in vivo; conditions: oral 10 ml/kg once daily for 14 successive days from transplantation; suspensions: cyclosporin A 30 mg/10 ml, tacrolimus 3 mg/10 ml, Compound B 0.1 mg/10 ml; C57BL/6N skin on BALB/cAnN mice
Excerpt: (1) Two strains of mice [C57BL/6N mice (female, 5 weeks of age, Charles River Japan Inc.) and BALB/cAnN mice (female, 5 weeks of age, Charles River Japan Inc.)] were used. Ten mice/group (transplanted individuals) were used.
C57BL/6N mice were sacrificed by cervical dislocation and their skins removed. The skins were cut to 8-mm diameter sizes by biopsy punch (MK706, 8 mm, Kai Industries Co., Ltd.). Next, 8 mm diameter sections of the back skins of BALB/cAnN mice anaesthetized with Avertin were removed by biopsy punch. The skin was cut along the edge of the damaged area by fine ophthalmic scissors. The previously cut skins of C57BL/6N mice were transplanted to the removed areas of the skin in BALB/cAnN mice. The transplanted areas were fixed with Aron Alpha (Sankyo Co., Ltd.). […]
On the 6th day after transplantation (the day of transplantation was defined as day 0), the Coban, SYLKYTEX, sterilized gauze, and Sofratulle were gently removed paying attention not to damage the skin by a pair of scissors. From the next day to 20 days after transplantation, it was determined whether rejection responses occurred in the transplanted skin. This determination was carried out blind, and the median day when the rejection response occurred was calculated.

[5] = test system: Mice GvHD (Graft Versus Host Disease); assay: Inhibitory activities against mice GvHD (Test Example 4); type: in vivo, BDF1 mice; conditions: oral 10 ml/kg once daily for 10 successive days; suspensions: cyclosporin A 0.1 mg/10 ml, tacrolimus 0.2 mg/10 ml, Compound B 0.01 mg/10 ml; spleen weight compensated for body weight
Protocol: Determination of Inhibitory Activities of Compounds against Mice GvHD (Graft Versus Host Disease) (1) Two strains of mice. [BDF1 mice (male, 6 weeks of age, Charles River Japan Inc.) and C57BL/6 mice (male, 7 weeks of age, Charles River Japan Inc.)] were used. Five mice/group (hosts) were used. (2) Induction of GvHD Spleen cells were isolated from the spleens of C57BL/6 mice or BDF1 mice and floated in RPMI1640 medium (Life Technologies Inc.) at a concentration of 2×10^7 cells/ml. 0.5 ml of the medium containing the free-floating spleen cells of C57BL/6 mice) was intravenously injected into the tail vein of BDF1 mice (GvHD induction group) and the same volume of the medium containing free-floating spleen cells of BDF1 mice was intravenously injected into the tail vein of BDF1 mice (the “same strain group”). (3) Administration of Compounds […] Body weight was determined and spleens were weighed, and “spleen weight compensated for the body weight following injection of GvHD” was calculated by dividing the spleen weight by the body weight. […] The inhibitory activities of compounds were calculated from the ratios of individual “spleen weight compensated for body weight following injection of GvHD” to the average “spleen weight compensated for body weight following injection of GvHD” in the control group.

Row | Structure (SMILES) | HvGR Inhibitory Rate (%) [1] [%] | HvGR ID50 values [2] [mg/kg] | ID50 values [3] [mg/kg] | Median Day of Rejection Response [4] [days] | GvHD Inhibitory Rate (%) [5] [%]
1 | CC(N)(CO)CCc1ccc(C(=O)CCCCc2ccccc2)s1.O=C(O)/C=C\C(=O)O (stereo not shown) [Compound A, 2-amino-2-methyl-4-[5-(5-phenylpentanoyl]thiophen-2-yl]butan-1-ol maleate] | 16.0 | – | – | – | –
2 | C[C@](N)(CO)CCc1ccc(C#CCCCC2CCCCC2)o1.O=C(O)C(=O)O [Example 2, (2R)-2-Amino-2-methyl-4-[5-(5-cyclohexylpent-1-ynyl)furan-2-yl]butan-1-ol oxalate] | – | 0.714 | 0.0899 | – | –
3 | C[C@](N)(CO)CCc1ccc(C#CCCOC2CCCCC2)o1.O=C(O)C(=O)O [Example 3, (2R)-2-Amino-2-methyl-4-[5-(4-cyclohexyloxybut-1-ynyl)furan-2-yl]butan-1-ol oxalate] | – | 0.116 | 0.0774 | – | –
4 | Cn1c(C#CCCCc2ccccc2)ccc1CC[C@@](C)(N)CO.O=C(O)C(=O)O [Example 9, (2R)-2-Amino-2-methyl-4-[1-methyl-5-(5-phenylpent-1-ynyl)pyrrol-2-yl]butan-1-ol oxalate] | – | 0.120 | – | – | –
5 | Cn1c(C#CCCOC2CCCCC2)ccc1CC[C@@](C)(N)CO.Cn1c(C#CCCOC2CCCCC2)ccc1CC[C@@](C)(N)CO.O=C(O)C(=O)O [Example 10, (2R)-2-Amino-2-methyl-4-[1-methyl-5-(4-cyclohexyloxybut-1-ynyl)pyrrol-2-yl]butan-1-ol ½-oxalate] | – | 0.276 | – | – | –
6 | C[C@](N)(CO)CCc1ccc(C#CCCCc2cccc(C(F)(F)F)c2)o1.O=C(O)C(=O)O [Example 15, (2R)-2-Amino-2-methyl-4-{5-[5-(3-trifluoromethylphenyl)pent-1-ynyl]furan-2-yl}butan-1-ol oxalate] | – | 0.304 | – | – | –
7 | C[C@](N)(CO)CCc1ccc(C#CCCCC2CCCCC2)o1.Cl [Example 19, (2R)-2-Amino-2-methyl-4-[5-(5-cyclohexylpent-1-ynyl)furan-2-yl]butan-1-ol hydrochloride] | – | 0.097 | 0.108 | – | –
8 | C[C@](N)(CO)CCc1ccc(C#CCCOC2CCCCC2)o1.Cl [Example 20, (2R)-2-Amino-2-methyl-4-[5-(4-cyclohexyloxybut-1-ynyl)furan-2-yl]butan-1-ol hydrochloride] | – | 0.082 | 0.102 | – | –
9 | Cl.Cn1c(CC[C@@](C)(N)CO)ccc1C(=O)CCCCc1ccccc1 [Example 33, (2R)-2-Amino-2-methyl-4-[1-methyl-5-(5-phenylpentanoyl)pyrrol-2-yl]butan-1-ol hydrochloride] | – | 0.013 | 0.0941 | 15.0 | −2.9
10 | C=CCC1C=C(C)CC(C)CC(OC)C2OC(O)(C(=O)C(=O)N3CCCCC3C(=O)OC(C(C)=CC3CCC(O)C(OC)C3)C(C)C(O)CC1=O)C(C)CC2OC (stereo not shown) [Tacrolimus, 17-allyl-1,14-dihydroxy-12-[2-(4-hydroxy-3-methoxycyclohexyl)-1-methylvinyl]-23,25-dimethoxy-13,19,21,27-tetramethyl-11,28-dioxa-4-azatricyclo[22.3.1.0^4,9]octacos-18-ene-2,3,10,16-tetrone, reference compound] | 25.8 | – | – | 11.0 | 7.6

Reference: US7199150B2, “Amino alcohol compounds” (Sankyo Company, Limited, priority 2002, dated 2007)
